Experimental data: patent US20240246967A1, “AXL COMPOUNDS” (ARCUS BIOSCIENCES, INC., priority 2021, published 2024)

Each molecule was assayed against T1, Axl (Homo sapiens, UniProt P30530) (assay: Axl NanoBRET intracellular kinase assay (intracellular binding, Cell Binding)). Conditions: HEK-293 cells transfected with Axl-NanoLuc fusion vector; 0.35 μM K-5 NanoBRET tracer.
T1 sequence (P30530 26-894): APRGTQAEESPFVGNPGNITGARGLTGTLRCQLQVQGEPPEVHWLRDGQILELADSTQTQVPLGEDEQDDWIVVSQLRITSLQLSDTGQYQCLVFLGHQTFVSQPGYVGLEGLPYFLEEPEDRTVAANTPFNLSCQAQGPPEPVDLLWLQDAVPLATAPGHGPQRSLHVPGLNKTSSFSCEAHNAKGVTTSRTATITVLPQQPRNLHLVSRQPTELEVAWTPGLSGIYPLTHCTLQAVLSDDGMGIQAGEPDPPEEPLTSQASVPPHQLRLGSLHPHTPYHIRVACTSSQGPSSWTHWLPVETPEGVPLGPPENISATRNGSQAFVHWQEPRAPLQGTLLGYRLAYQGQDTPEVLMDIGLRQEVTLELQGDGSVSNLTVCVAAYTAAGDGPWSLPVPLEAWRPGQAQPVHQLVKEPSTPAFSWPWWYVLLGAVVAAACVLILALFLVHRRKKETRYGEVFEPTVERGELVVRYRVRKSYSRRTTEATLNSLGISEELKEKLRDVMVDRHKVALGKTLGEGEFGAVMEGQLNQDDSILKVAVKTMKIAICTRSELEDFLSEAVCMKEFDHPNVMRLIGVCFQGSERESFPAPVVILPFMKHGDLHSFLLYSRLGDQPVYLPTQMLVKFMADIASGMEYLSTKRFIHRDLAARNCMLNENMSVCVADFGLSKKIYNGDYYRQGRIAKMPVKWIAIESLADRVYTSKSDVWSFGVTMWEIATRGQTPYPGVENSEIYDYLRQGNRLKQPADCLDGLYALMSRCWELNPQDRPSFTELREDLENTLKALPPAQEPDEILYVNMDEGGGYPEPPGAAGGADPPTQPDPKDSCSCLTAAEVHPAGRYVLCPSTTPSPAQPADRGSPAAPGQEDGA
Design: host or cells: HEK-293
Procedure, shortened: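 Intracellular binding measured as loss of BRET (610 nm/450 nm) when compounds displace 0.35 μM K-5 tracer from Axl-NanoLuc in transfected HEK-293 cells.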

Compound	IC50 [nM]
C[C@@H]1CCCN1C1(C)CCc2ccc(-c3cnc4[nH]nc(-c5ccc(S(=O)(=O)C6CC6)cc5)c4c3)cc2CC1 (stereo partly drawn) [Example 1, 3-(4-(Cyclopropylsulfonyl)phenyl)-5-(7-methyl-7-((R)-2-methylpyrrolidin-1-yl)-6,7,8,9-tetrahydro-5H-benzo[7]annulen-2-yl)-1H-pyrazolo[3,4-b]pyridine]	< 100
CC1(N2CCOCC2)CCc2ccc(-c3cnc4[nH]nc(-c5ccc(S(=O)(=O)C6CC6)cc5)c4c3)cc2CC1 (centres unmarked) [Example 2, 4-(2-{3-[4-(Cyclopropanesulfonyl)phenyl]-1H-pyrazolo[3,4-b]pyridin-5-yl}-7-methyl-6,7,8,9-tetrahydro-5H-benzo[7]annulen-7-yl)morpholine]	> 1000
CC1(N2CCC[C@@H]2CO)CCc2ccc(-c3cnc4[nH]nc(-c5ccc(S(=O)(=O)C6CC6)cc5)c4c3)cc2CC1 (stereo partly drawn) [Example 3, [(2R)-1-(2-{3-[4-(Cyclopropanesulfonyl)phenyl]-1H-pyrazolo[3,4-b]pyridin-5-yl}-7-methyl-6,7,8,9-tetrahydro-5H-benzo[7]annulen-7-yl)pyrrolidin-2-yl]methanol]	< 100
C[C@@H]1CCCN1C1CCc2ccc(-c3cnc4[nH]nc(-c5ccc(C6(O)CCOC6)c(Cl)c5)c4c3)cc2CC1 (stereo partly drawn) [Example 63, 3-[2-Chloro-4-(5-{7-[(2R)-2-methylpyrrolidin-1-yl]-6,7,8,9-tetrahydro-5H-benzo[7]annulen-2-yl}-1H-pyrazolo[3,4-b]pyridin-3-yl)phenyl]oxolan-3-ol]	< 100
C[C@@H]1CCCN1C1CCc2ccc(-c3cnc4[nH]nc(-c5ccc(C6(O)COC6)c(Cl)c5)c4c3)cc2CC1 (stereo partly drawn) [Example 64, 3-[2-Chloro-4-(5-{7-[(2R)-2-methylpyrrolidin-1-yl]-6,7,8,9-tetrahydro-5H-benzo[7]annulen-2-yl}-1H-pyrazolo[3,4-b]pyridin-3-yl)phenyl]oxetan-3-ol]	> 1000
C[C@@H]1CCCN1C1CCc2ccc(-c3cnc4[nH]nc(-c5cnc(C(C)(C)O)c(Cl)c5)c4c3)cc2CC1 (stereo partly drawn) [Example 65, 2-[3-Chloro-5-(5-{7-[(2R)-2-methylpyrrolidin-1-yl]-6,7,8,9-tetrahydro-5H-benzo[7]annulen-2-yl}-1H-pyrazolo[3,4-b]pyridin-3-yl)pyridin-2-yl]propan-2-ol]	< 100
COC1CCN(C(=O)c2ccc(-c3n[nH]c4ncc(-c5ccc6c(c5)CC[C@@H](N5CCCC5)CC6)cc34)cc2Cl)CC1 [Example 66, (S)-(2-Chloro-4-(5-(7-(pyrrolidin-1-yl)-6,7,8,9-tetrahydro-5H-benzo[7]annulen-2-yl)-1H-pyrazolo[3,4-b]pyridin-3-yl)phenyl)(4-methoxypiperidin-1-yl)methanone]	< 100
COC1CCN(C(=O)c2ccc(-c3n[nH]c4ncc(-c5ccc6c(c5)CCC(C)(N5CCC[C@H]5C)CC6)cc34)cc2Cl)CC1 (stereo partly drawn) [Example 67, 1-[2-Chloro-4-(5-{7-methyl-7-[(2R)-2-methylpyrrolidin-1-yl]-6,7,8,9-tetrahydro-5H-benzo[7]annulen-2-yl}-1H-pyrazolo[3,4-b]pyridin-3-yl)benzoyl]-4-methoxypiperidine]	< 100
C[C@@H]1CCCN1C1(C)CCc2ccc(-c3cnc4[nH]nc(-c5ccc(C(N)=O)c(Cl)c5)c4c3)cc2CC1 (stereo partly drawn) [Example 68, 2-Chloro-4-(5-{7-methyl-7-[(2R)-2-methylpyrrolidin-1-yl]-6,7,8,9-tetrahydro-5H-benzo[7]annulen-2-yl}-1H-pyrazolo[3,4-b]pyridin-3-yl)benzamide]	< 100
C[C@@H]1CCCN1C1(C)CCc2ccc(-c3cnc4[nH]nc(-c5ccc(C(=O)NC6CC6)cc5)c4c3)cc2CC1 (stereo partly drawn) [Example 69, N-Cyclopropyl-4-(5-{7-methyl-7-[(2R)-2-methylpyrrolidin-1-yl]-6,7,8,9-tetrahydro-5H-benzo[7]annulen-2-yl}-1H-pyrazolo[3,4-b]pyridin-3-yl)benzamide]	< 100
CC(C)NC(=O)c1ccc(-c2n[nH]c3ncc(-c4ccc5c(c4)CCC(C)(N4CCC[C@H]4C)CC5)cc23)cc1 (stereo partly drawn) [Example 70, 4-(5-{7-Methyl-7-[(2R)-2-methylpyrrolidin-1-yl]-6,7,8,9-tetrahydro-5H-benzo[7]annulen-2-yl}-1H-pyrazolo[3,4-b]pyridin-3-yl)-N-(propan-2-yl)benzamide]	< 100
COCCNC(=O)c1ccc(-c2n[nH]c3ncc(-c4ccc5c(c4)CCC(C)(N4CCC[C@H]4C)CC5)cc23)cc1 (stereo partly drawn) [Example 72, N-(2-Methoxyethyl)-4-(5-{7-methyl-7-[(2R)-2-methylpyrrolidin-1-yl]-6,7,8,9-tetrahydro-5H-benzo[7]annulen-2-yl}-1H-pyrazolo[3,4-b]pyridin-3-yl)benzamide]	< 100
CCC1(N2CCC[C@H]2C)CCc2ccc(-c3cnc4[nH]nc(-c5ccc(C(N)=O)c(Cl)c5)c4c3)cc2CC1 (stereo partly drawn) [Example 73, 2-Chloro-4-(5-{7-ethyl-7-[(2R)-2-methylpyrrolidin-1-yl]-6,7,8,9-tetrahydro-5H-benzo[7]annulen-2-yl}-1H-pyrazolo[3,4-b]pyridin-3-yl)benzamide]	< 100
CCC1(N2CCC[C@@H]2CO)CCc2ccc(-c3cnc4[nH]nc(-c5ccc(C(N)=O)c(Cl)c5)c4c3)cc2CC1 (stereo partly drawn) [Example 74, 2-Chloro-4-(5-{7-ethyl-7-[(2R)-2-(hydroxymethyl)pyrrolidin-1-yl]-6,7,8,9-tetrahydro-5H-benzo[7]annulen-2-yl}-1H-pyrazolo[3,4-b]pyridin-3-yl)benzamide]	< 100
CCC1(N2CCC[C@H]2CO)CCc2ccc(-c3cnc4[nH]nc(-c5ccc(C(N)=O)c(Cl)c5)c4c3)cc2CC1 (stereo partly drawn) [Example 75, 2-Chloro-4-(5-{7-ethyl-7-[(2S)-2-(hydroxymethyl)pyrrolidin-1-yl]-6,7,8,9-tetrahydro-5H-benzo[7]annulen-2-yl}-1H-pyrazolo[3,4-b]pyridin-3-yl)benzamide]	< 100
C[C@@H]1CCCN1C1(C)CCc2ccc(-c3cnc4[nH]nc(-c5ccc(C(=O)N6CCC6)cc5)c4c3)cc2CC1 (stereo partly drawn) [Example 76, (2R)-1-(2-{3-[4-(Azetidine-1-carbonyl)phenyl]-1H-pyrazolo[3,4-b]pyridin-5-yl}-7-methyl-6,7,8,9-tetrahydro-5H-benzo[7]annulen-7-yl)-2-methylpyrrolidine]	< 100
NC(=O)c1ccc(-c2n[nH]c3ncc(-c4ccc5c(c4)CCC(N4CCCC4)CC5)cc23)cc1Cl (centres unmarked) [Example 77, 2-Chloro-4-(5-(7-(pyrrolidin-1-yl)-6,7,8,9-tetrahydro-5H-benzo[7]annulen-2-yl)-1H-pyrazolo[3,4-b]pyridin-3-yl)benzamide]	< 100
NC(=O)c1ccc(-c2n[nH]c3ncc(-c4ccc5c(c4)CCC(N4CCCC4)CC5)cc23)cc1 (centres unmarked) [Example 78, 4-(5-(7-(Pyrrolidin-1-yl)-6,7,8,9-tetrahydro-5H-benzo[7]annulen-2-yl)-1H-pyrazolo[3,4-b]pyridin-3-yl)benzamide]	< 100
Cc1cc(-c2n[nH]c3ncc(-c4ccc5c(c4)CCC(N4CCCC4)CC5)cc23)cc(F)c1C(N)=O (centres unmarked) [Example 79, 2-Fluoro-6-methyl-4-(5-(7-(pyrrolidin-1-yl)-6,7,8,9-tetrahydro-5H-benzo[7]annulen-2-yl)-1H-pyrazolo[3,4-b]pyridin-3-yl)benzamide]	< 100
NC(=O)c1ccc(-c2n[nH]c3ncc(-c4ccc5c(c4)CCC(N4CCCC4)CC5)cc23)cc1C(F)(F)F (centres unmarked) [Example 80, 4-(5-(7-(Pyrrolidin-1-yl)-6,7,8,9-tetrahydro-5H-benzo[7]annulen-2-yl)-1H-pyrazolo[3,4-b]pyridin-3-yl)-2-(trifluoromethyl)benzamide]	< 100
NC(=O)c1ccc(-c2n[nH]c3ncc(-c4ccc5c(c4)CCC(N4CCCC4)CC5)cc23)cc1F (centres unmarked) [Example 81, 2-Fluoro-4-(5-(7-(pyrrolidin-1-yl)-6,7,8,9-tetrahydro-5H-benzo[7]annulen-2-yl)-1H-pyrazolo[3,4-b]pyridin-3-yl)benzamide]	< 100
O=C(c1ccc(-c2n[nH]c3ncc(-c4ccc5c(c4)CC[C@@H](N4CCCC4)CC5)cc23)cc1Cl)N1CCNCC1 [Example 82, (S)-(2-Chloro-4-(5-(7-(pyrrolidin-1-yl)-6,7,8,9-tetrahydro-5H-benzo[7]annulen-2-yl)-1H-pyrazolo[3,4-b]pyridin-3-yl)phenyl)(piperazin-1-yl)methanone]	< 100
Cc1cc(-c2n[nH]c3ncc(-c4ccc5c(c4)CC[C@@H](N4CCCC4)CC5)cc23)cc(F)c1C(N)=O [Example 83, (S)-2-Fluoro-6-methyl-4-(5-(7-(pyrrolidin-1-yl)-6,7,8,9-tetrahydro-5H-benzo[7]annulen-2-yl)-1H-pyrazolo[3,4-b]pyridin-3-yl)benzamide]	< 100
